Key:
[1] = target: T1, PilT^Gm (PilT4 from Geobacter metallireducens) (Geobacter metallireducens, UniProt Q39VU6); test: X-ray crystal structure (OCOCOC); conditions: preincubated with Mg2+ and ATP, unbound nucleotide removed, pH 7.6; nucleotide-binding site
T1 construct: gene pilT-4; hexamer; domains N2D residues 1-100, CTD 101-353

[2] = target: T1, PilT^Gm (PilT4 from Geobacter metallireducens); test: X-ray crystal structure (anisotropic, about […] A); conditions: 2 mM ANP, 2 mM MgCl2, pH 7.9 reservoir; four of six nucleotide-binding sites, ADP in the other two; CCOCCO conformation

T1 sequence (Q39VU6 entry or part of it): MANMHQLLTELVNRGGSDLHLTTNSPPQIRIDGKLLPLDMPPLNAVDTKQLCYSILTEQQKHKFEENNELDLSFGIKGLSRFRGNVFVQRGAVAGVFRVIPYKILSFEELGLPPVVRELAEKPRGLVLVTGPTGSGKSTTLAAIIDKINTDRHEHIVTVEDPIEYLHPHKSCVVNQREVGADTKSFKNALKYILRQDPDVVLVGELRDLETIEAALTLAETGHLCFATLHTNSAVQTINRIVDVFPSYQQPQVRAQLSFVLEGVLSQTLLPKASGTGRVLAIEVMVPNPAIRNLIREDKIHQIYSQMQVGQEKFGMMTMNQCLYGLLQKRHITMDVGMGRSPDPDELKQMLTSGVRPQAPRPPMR

SMILES	X-ray crystal structure (OCOCOC) [1]	X-ray crystal structure (anisotropic, about 4.0 A) [2]
Nc1ncnc2c1ncn2[C@@H]1O[C@H](COP(=O)(O)OP(=O)(O)O)[C@@H](O)[C@H]1O [ADP]	An isomorphous structure with high ADP occupancy was obtained	
Nc1ncnc2c1ncn2[C@@H]1O[C@H](COP(=O)(O)OP(=O)(O)NP(=O)(O)O)[C@@H](O)[C@H]1O [ANP]		density consistent with ANP could be modeled into four of the six nucleotide-binding sites

— article PMC6858323, “Multiple conformations facilitate PilT function in the type IV pilus” (Nature Communications, 2019)
